# Results reported in US12576055B2, “Disease detection and treatment based on trimethyl-lysine levels” (The Cleveland Clinic Foundation, priority 2018, dated 2026).
# What was measured:
# [1] = reference (19); cited from earlier work
# [2] = Oral (gastric gavage) d9-TML or d9-choline isotope tracer challenge, serial plasma levels by LC/MS/MS
# Method: Supernatant was loaded for LC/MS/MS analysis.
# Whole blood (50 μl) was collected via the saphenous vein from C57BL/6J (Jackson #0664) female mice prior to gavage for the measurement of baseline analyte levels. Mice were administered an oral dose of stable isotope-labelled TML or choline. The gastric gavage consisted of 150 μl of either 150 mM synthetic d9-TML or 150 mM choline-N,N,N-trimethyl-d9 (d9-choline, Cambridge Isotope Lab), followed by post-gavage blood collection at the indicated times. Where indicated, gut microbiota were suppressed in mice by placement of a cocktail of poorly absorbed antibiotics in drinking water for 3 weeks prior to the d9-TML challenge, as previously described (1, 19). Quantification of the abundance of native and isotope-labeled forms of TML, TMA and TMAO in mouse plasma was performed using stable-isotope-dilution LC-MS/MS using established methods for TMA and TML (19), and using the parent daughter ion transitions for TML and its internal standard as described above. In additional studies, the role of gut microbiota in TMAO formation from dietary TML was determined in C57BL/6J mice by performance of oral (gavage) d9-TML challenge. Mice were housed in conventional cages in the absence or presence of a cocktail of broad spectrum antibiotics added to the drinking water previously shown to suppress gut microbiota (1,19).
# [3] = system: mouse cecal, colonic and small bowel microbiota; assay: Gut microbial TMA lyase activity assay, d9-TMA production in anaerobic cultures of mouse intestine segments
# Method: (§1) TMA lyase activity was monitored by quantifying d9-TMA production from d9(trimethyl) labeled potential nutrient precursors by stable isotope dilution LC/MS/MS analysis. Briefly, TMA lyase activity was typically quantified by incubating the indicated enzyme source (C57BL/6J female mouse intestine segments or human feces from healthy vegans/vegetarians and omnivores). Reactions were initiated by the addition of d9-labeled substrates (d9-TML, d9-carnitine or d9-choline) incubated under anaerobic conditions. Following 20 hours incubation at 37° C., reactions were halted, [^13C3,^15N]-TMA (Sigma Chemicals, St. Louis, MO) in 0.2 N formic acid was added as an internal standard, followed by immediate extraction of TMA isotopologues into the organic layer produced following mixing with successive additions of 2 ml hexane, 1 ml butanol and 0.2 ml 1N NaOH (to deprotonate the TMA isotopologues). Mixtures were then vortexed, centrifuged, and the upper hexane layer was transferred to a 12×75 mm PTFE capped threaded glass tube, acidified with the addition of 200 μl of 0.2 N formic acid, vortexed and the organic and aqueous layers were separated by centrifugation. The now protonated TMA isotopologues were recovered in the aqueous phase for quantitation by stable isotope dilution LC/MS/MS analysis. Sample aliquots were injected onto a reverse phase C18 HPLC column (2.0×150 mm, 5 μm, Phenomenex Prodigy (Phenomenex)) eluted at a flow rate of 0.2 ml/min and resolved using a linear gradient between 0.2% formic acid in water and 0.2% formic acid in acetonitrile/methanol (95:5, v/v). HPLC column effluent was introduced into an AB Sciex 5500 QTRAP mass spectrometer using electrospray ionization in the positive-ion mode. Both d9-TMA and [^13C3,^15N]TMA were monitored using multiple reaction monitoring of parent and characteristic daughter ions: m/z 69→49 for d9-TMA; and m/z 64→47 for [^13C3,^15N]TMA. Reactions without microbial enzyme source (tissues, cells, cell lysates, or isolated proteins) were used as blank.
# [4] = system: human fecal commensals (omnivores and vegans); assay: Gut microbial TMA lyase activity assay, d9-TMA production in human polymicrobial fecal anaerobic cultures; format: in vitro ADME
# Method: as §1
# (§2) Human feces and all bacteria including individual strain and fresh combined 68 strains were grown with 100 μM d9-TML or d9-choline (as a positive control) in complex reduced medium in a Coy anaerobic chamber (5% H2, 20% CO2, and 75% N2, 37° C.) for 0-4 days as previously described (27). The reaction was stopped by adding 6N HCl to samples (1:100 dilution to 60 mM final), and freezing at −80° C. until d9-TMA extraction and analysis by LC-MS/MS, as described in Methods above.
# [5] = system: panel of 68 culturable human commensals; assay: In vitro screening for the conversion of d9-TML to d9-TMA by culturable human commensals; format: in vitro ADME, human gut bacteria
# Method: as §2
# [6] = system: cutC/D, yeaX/W, or cntA/B microbial TMA generating enzyme systems; assay: Recombinant microbial TMA lyases expressed in E. coli, d9-TMA production from d9-labeled substrates; format: biochemical; conditions: E. coli transformed with cutC/D
# [7] = system: carotid artery thrombus formation; assay: In vivo carotid artery thrombosis model (FeCl3 induced injury); design: species or system C57BL/6J mice; conditions: 1% supplemented diet for 11 days
# Method: Conventional mice (female, 10 weeks old, C57BL/6J, 10 per treatment group) were placed on chemically defined diets for 11 days. Mice were assessed for in vivo thrombosis potential with the common carotid injury model by application of 10% FeCl3 for 1 min (11, 38). […] The left carotid artery was exposed and injured by placing a FeCl3 soaked filter paper for one minute. […] Time to cessation of blood flow was determined by visual inspection of computer images of the thrombosis process from 30 seconds to 30 minutes by investigators blinded to mouse treatment group.
# [8] = female, C57BL/6J, mouse, in vivo
# Method: Stable isotope dilution LC/MS/MS was used for quantification of TML, TMAO, TMA, lysine, γ-butyrobetaine and carnitine similar to that described previously (1, 8, 9, 15). For TML standard curves, varying levels of TML were spiked into 20 μl control plasma followed by precipitation with 80 μl methanol containing 0.8 nmol d9-TML. Supernatant was loaded for LC/MS/MS analysis. Analyses were performed using electrospray ionization in positive-ion mode with multiple reaction monitoring of parent and characteristic daughter ions and retention times specific for components monitored. The transitions monitored for TML were mass-to-charge ratio (m/z): m/z 189.1→84.1, 189.1→60.1, and 189.1→130.1. The internal standards (e.g., d9-trimethyl-TML, d9-trimethyl-TMAO) were added to plasma before protein precipitation. Various concentrations of analytes and a fixed amount of internal standards were spiked into control plasma to prepare the calibration curves for quantification of plasma analytes. Their concentrations in human and mouse plasma samples were determined by high-performance liquid chromatography with a Shimadzu 8050 triple quadrupole mass spectrometer interfaced to a Shimadzu Nexera Ultra High Performance Liquid Chromatograph (UHPLC) system.
# Conventional mice (female, 10 weeks old, C57BL/6J, 10 per treatment group) were placed on chemically defined diets for 11 days.
# [9] = conventionally reared C57BL/6J mice, gastric gavage 150 μl of 150 mM
# [10] = anaerobic culture, 20 hours, 37° C.
smiles,measurement,setting,value
C[N+](C)(C)CC(=O)O [betaine],"rate as TMA nutrient precursor, less than choline",[1],about 100 fold
"[2H]C([2H])([2H])[N+](CCCCC(N)C(=O)O)(C([2H])([2H])[2H])C([2H])([2H])[2H] (stereo not shown) [d9-TML, [d9-N, N, N-trimethyl] lysine]",plasma d9-TMAO following d9-TML oral gavage in mice treated with oral antibiotics,[2]; 3 weeks cocktail of poorly absorbed broad-spectrum antibiotics,no detectable
same,impact of pretreatment with oral antibiotics on plasma d9-TML levels following oral gavage,[2]; P=0.87,no impact
same,plasma level of d9-TMA following oral d9-TML gavage,[2]; [9],rose only minimally
same,plasma level of d9-TMAO following oral d9-TML gavage,[2]; [9],rose only minimally
same,time to increase in plasma d9-TML level following ingestion,"[2]; oral gavage, C57BL/6J mice",≤ 1 h
same,d9-TMA formation by small bowel microbes,[3]; [10],significantly lower but detectable levels
same,d9-TMA generation by microbes from cecal and colonic segments,[3]; [10],generated d9-TMA
same,"d9-TML to d9-TMA transformation, feces of omnivores versus vegans",[4]; P<0.04,significantly greater activity than vegans
same,overall level of TMA generation from TML in human fecal cultures,"[4]; omnivores and vegans, anaerobic",relatively low
same,conversion of d9-TML to d9-TMA by eighteen individual members of the human commensal library,"[5]; anaerobic, 100 μM",none of these species significantly promoted conversion
same,d9-TML to d9-TMA transformation by pool of all 68 species,"[5]; prolonged (4 days) incubation, assay limit of detection ~1 nM",virtually no detectable
same,conversion into d9-TMA by recombinant microbial TMA generating enzyme systems,[6],none of the known recombinant microbial TMA generating enzyme systems examined supported d9-TML conversion into d9-TMA
"C[N+](C)(C)CCCC[C@H](N)C(=O)O [TML, N6-trimethyl-lysine]","in vivo thrombosis potential (thrombus formation rate, time to cessation of blood flow)",[7],failed to significantly change
same,plasma level of TMAO after 11 days of the indicated diet,[8],4.5 ± 2.1 µM
same,plasma level of TML after 11 days of the indicated diet,[8],37.0 ± 15.5 µM
same,increase in plasma TML levels,[8]; 11 days,~100 fold
[2H]C(O)(CC(=O)[O-])C([2H])([2H])[N+](C)(C([2H])([2H])[2H])C([2H])([2H])[2H] (stereo not shown) [d9-carnitine],"synthetic capacity of cecal microbiota to generate d9-TMA, higher than that observed with d9-TML",[3],10 fold
same,d9-TMA formed in vegan fecal cultures compared with d9-TML,[4],comparable degree
same,"production of d9-TMA in polymicrobial fecal cultures from omnivores, greater",[4],> 100 fold
"[2H]C([2H])([2H])[N+](CCO)(C([2H])([2H])[2H])C([2H])([2H])[2H] [d9-choline, choline-N,N,N-trimethyl-d9]",plasma level of isotope labeled precursor compared with d9-TML challenge,"[2]; mouse, in vivo",substantially lower
same,"peak plasma level of d9-TMA, higher than after the same molar amount of oral d9-TML","[2]; mouse, in vivo, po",30-50 fold
same,"peak plasma level of d9-TMAO, higher than after the same molar amount of oral d9-TML","[2]; mouse, in vivo, po",30-50 fold
same,"synthetic capacity of cecal microbiota to generate d9-TMA, higher than that observed with d9-TML",[3],1000 fold
same,"d9-TMA conversion in human fecal cultures, greater than the levels produced from d9-TML",[4],approximately 3 orders of magnitude
C[N+](C)(C)CCO [choline],plasma level of TMAO after 11 days of the indicated diet,[8],90.6 ± 55.1 µM
same,plasma level of TML after 11 days of the indicated diet,[8],0.8 ± 0.4 µM
same,rise of plasma TMAO levels,[8]; 11 days,~20 fold
